Common to all, as to assay: inhibition of tumour cell growth, NCI panel, 48 h
Test [1] has as its system HCT-116 colon.
Test [2] concerns OVCAR-8 ovarian.
Test [3] has as its system SF-268 CNS.
Test [4] relates to SN12C renal.
The test system of test [5] is SW-620 colon.
Test [6] concerns T-47D breast.
Test [7] has as its system TK-10 renal.
Test [8] relates to UACC-257 melanoma.
For test [9], the system named is HCT-15 colon.
The subject of test [10] is SNB-19 CNS.

Structures are written as SMILES. Several values for one entry are separate records, joined by “and”; a condition that tells them apart may be missing. Equal values may be shown once.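 Values below derive from 48-hour exposures of cells grown in 96-well plates, with endpoints linearly interpolated between the two concentrations bracketing the appropriate inhibition level. Here, GI50 denotes the concentration required for 50% inhibition of growth. TGI denotes the concentration required for complete inhibition of growth.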

On to `C#CCOC(=O)C(N)CCSC` (stereo not drawn), for which the TGI in test [1], in test [2], in [3], in test [4], in test [5] and in test [6] was over 100 µM throughout. Moreover, the TGI in test [7] and in test [8] was over 100 µM in each case.

Consider `O=C1NC2(C=Cc3c(ccc4ccccc34)O2)Oc2ccccc21` (stereo not drawn), for which the TGI in test [1] is 40.8 µM; in test [9] it was 71.2 µM; in test [2], over 100 µM; in test [3] it was 58.3 µM; in [4] it was 63.4 µM; in [10], 79.1 µM. For the same molecule, the TGI in test [5] and in test [7] was over 100 µM each time.

As to `COC[C@@H](Cc1ccc(OC)c(OC)c1)[C@@H](COC)Cc1ccc(OC)c(OC)c1`, the TGI in test [1], in test [9], in [2], in test [3], in [4] and in test [10] was over 100 µM in each case. The TGI in [5], in test [7] and in test [8] was over 100 µM each time.

Consider `CC1(C)C2CCC(N)(C2)C1O` (stereo not drawn), for which the TGI in test [1], in test [9], in [2], in test [4], in test [10] and in test [5] was over 100 µM throughout. The TGI in test [6], in test [7] and in [8] was over 100 µM in each case.

Take `COC(=O)C(Cc1nc2ccccc2[nH]c1=O)C(=O)C(=O)Nc1cc(C(F)(F)F)ccc1Cl` (stereo not drawn): the TGI in test [1] was 32.1 µM; in test [9], 26.7 µM; in test [2] it was 30 µM; in test [3], 36.4 µM; in test [4], 54.8 µM; in [5] it was over 100 µM. Moreover, the TGI in test [6] was 44.7 µM; in test [7] it was 44 µM; in test [8] it was over 100 µM.

As to `CC1(C)c2ccccc2C(O)C12CCC(=O)CC2` (stereo not drawn), the TGI in test [1] is 23.2 µM; in test [9], over 100 µM; in test [3], over 100 µM; in test [4], over 100 µM; in test [10], over 100 µM; in test [5], over 100 µM. The TGI in test [6], in test [7] and in [8] was over 100 µM in each case.

On to `COc1ccccc1NCC(=O)Nn1c(C)nc2ccc(S(=O)(=O)Nc3ccccc3OC)cc2c1=O`, for which the TGI in test [1], in test [9], in test [2], in test [3], in test [4] and in [10] was over 100 µM in each case. The TGI in test [5], in test [7] and in test [8] was over 100 µM in each case.

Regarding `Cc1sc2nc3n(c(=O)c2c1C)N=C(c1ccc([N+](=O)[O-])cc1)CS3`, the TGI in [1], in test [9], in test [2], in test [3], in test [4] and in test [5] was over 100 µM throughout. For the same molecule, the TGI in test [6] and in [8] was over 100 µM throughout.

Take `C[N+](C)(N)c1nc(N)c(C#N)c(C#N)c1C#N`: the TGI in test [1], in test [9], in [2], in test [3], in test [4] and in [10] was over 10 µM in each case. Moreover, the TGI in test [5], in [6] and in test [7] was over 10 µM in each case.

Consider `CC(C)N(C(C)C)P(OCCC#N)OC1CC(n2cnc3c(=O)[nH]cnc32)OC1COC(=O)NCCCCCCNC(=O)OC(C)(C)c1ccc(-c2ccccc2)cc1` (stereo not drawn), for which the TGI was over 100 µM in test [1]; over 100 µM in test [9]; 92.4 µM in test [2]; 57.5 µM in [3]; 54 µM in test [4]; 57.8 µM in [10]. Also, the TGI in [5] is over 100 µM; in [7] it was over 100 µM; in test [8] it was 30.3 µM.

In the case of `COc1ccccc1NS(=O)(=O)c1ccc2ncn(NS(=O)(=O)c3ccc(Cl)cc3)c(=O)c2c1`, the TGI in test [1], in test [9], in test [2], in test [3], in test [4] and in [10] was over 100 µM each time. For the same molecule, the TGI in test [5], in test [7] and in test [8] was over 100 µM throughout.

Turning to `COC(=O)C1C2CC3C(OC(=O)C31)C2OC(=O)[C@](OC)(c1ccccc1)C(F)(F)F` (stereo partly drawn), the TGI in [1], in test [9], in test [2], in test [3], in test [4] and in [10] was over 100 µM each time. Besides, the TGI in test [5], in [7] and in test [8] was over 100 µM throughout.

For `CCN(CC)CCNc1ccc2ncn3c4cc(=O)ccc4c(O)c1c23`, the TGI in [1] came out at 15.5 µM; in test [9], 17 µM; in test [2] it was 7.77 µM; in test [3], 12.1 µM; in test [4] it was 15.7 µM; in test [10] it was 32 µM. In addition, the TGI in [5] was 21 µM; in test [7], 47.1 µM; in test [8], 17.8 µM.

Turning to `CCCCNC(=S)Nc1nc(C(=O)NNC(=O)c2ccccc2)cs1`, the TGI in test [1] was 27.1 µM; in test [9], 26.1 µM; in test [2], 66.9 µM; in test [3], over 100 µM; in test [4], 38 µM; in [5] it was 30.2 µM. For the same molecule, the TGI turned out to be 39.4 µM in test [6], 60.6 µM in [7] and 37 µM in test [8].

With `COc1cc2c(c(OC)c1OC)-c1ccc(SC)cc1C(=O)CC2`, the TGI in [9], in test [2], in test [4], in test [10], in test [5] and in test [6] was over 100 µM in each case. In addition, the TGI in [7] was over 100 µM.

Turning to `CN(C)c1ccc(/C=c2/c3cc([N+](=O)[O-])ccc3n3c2cc(-c2ccccc2)[n+]3C)cc1`, the TGI in [1] is 5.84 µM; in [9], 42.1 µM; in [2], 27.7 µM; in test [3], 2.86 µM; in test [10], 3.84 µM; in [5], 2.75 µM. In addition, the TGI in [6] was found to be 1.81 µM; in [7] it was 9.32 µM.

For `CN(C)CCn1nc(N)c2nc3cc(C(F)(F)F)ccc3nc21`, the TGI in [1], in [9], in test [2], in test [3], in test [4] and in test [10] was over 100 µM throughout. Further, the TGI in test [5], in test [7] and in test [8] was over 100 µM throughout.

Take `c1ccc(C2[C@@H]3CCCc4ccccc4C3=NN2c2ccccc2)cc1` (stereo partly drawn): the TGI in test [1], in [9], in test [2], in test [3], in test [4] and in [10] was over 100 µM throughout. Moreover, the TGI in test [5], in [7] and in [8] was over 100 µM in each case.

Regarding `C=CCC(SC)C1=C(C)C(=O)c2ccccc21` (stereo not drawn), the TGI in test [9], in test [2], in test [3], in test [4], in test [10] and in test [5] was over 10 µM throughout. The TGI in [6], in test [7] and in test [8] was over 10 µM throughout.

Turning to `CCCCCCCCCCSCC(CO)NC(=O)/C=C/c1c(C)[nH]c(=O)[nH]c1=O` (stereo not drawn), the TGI was over 50 µM in test [1]; over 50 µM in [9]; 18.6 µM and 10.4 µM in [2]; 10.2 µM and > 21.4 µM in [3]; 17.7 µM and > 32.8 µM in [4]; 13.7 µM and 12.4 µM in test [10]. The TGI in test [5] and in [8] was over 50 µM each time. Besides, the GI50 in [9] was 5.55 µM and 14.7 µM; in test [3] it was 0.895 µM; in [8], 1.77 µM and 3.82 µM.

For `COc1ccc(C2C(Cl)C(=O)N2NC(=O)Cc2ccccc2)cc1OC` (stereo not drawn), the TGI in test [1], in [9], in test [2], in test [3], in [4] and in test [10] was over 100 µM each time. Besides, the TGI in [5], in [7] and in test [8] was over 100 µM throughout.

As for `O=C1C[C@H](c2ccc(O)c(O)c2)Oc2cc(O)cc(O)c21`, the TGI in test [1], in test [9], in test [2], in test [3], in test [4] and in [10] was over 100 µM in each case. For the same molecule, the TGI in test [5], in test [7] and in test [8] was over 100 µM each time.

For the molecule `Nc1ccc(-c2nc3ccccc3s2)cc1Br`, the TGI in test [9], in test [2], in test [3], in test [4], in test [10] and in [5] was over 100 µM throughout. The TGI in test [6], in test [7] and in [8] was over 100 µM each time.

For `CC(=O)n1ccc2c(Cl)ncnc21`, the TGI in test [1], in test [9], in test [2], in test [3], in test [4] and in test [10] was over 100 µM throughout. The TGI in [5], in test [7] and in test [8] was over 100 µM each time.

Take `O=[N+]([O-])c1cc(Cl)ccc1S(=O)(=O)N1CCCc2cc(Cl)ccc21`: the TGI in test [1], in test [9], in test [2], in test [3], in test [4] and in test [10] was over 100 µM throughout. The TGI in [5] is over 100 µM; in test [7], over 100 µM; in test [8], 83.7 µM.

Consider `COCCNC1CCC2(SCCS2)c2[nH]c3ccccc3c21` (stereo not drawn), for which the TGI was over 100 µM in test [1]; over 100 µM in [9]; over 100 µM in test [2]; over 100 µM in test [3]; 91.9 µM in test [4]; over 100 µM in [10]. Moreover, the TGI was over 100 µM in test [5], 44.6 µM in test [7] and 39.5 µM in [8].

On to `CC(=O)O[C@H]1CC[C@H]2[C@@H]3CCC(C(C)=O)[C@H](C(=O)O)[C@H]3CC[C@]12C` (stereo partly drawn), for which the TGI in test [9], in test [2], in test [3], in test [10], in test [5] and in [7] was over 100 µM each time. This molecule also registered a TGI in [8] of over 100 µM.

In the case of `CC(C)c1cccc(C(C)C)c1OS(=O)(=O)NC(=O)OC(C(F)(F)F)C(F)(F)F`, the TGI in [1], in [9], in [2], in test [3], in test [4] and in test [10] was over 100 µM in each case. Also, the TGI in [5], in test [7] and in test [8] was over 100 µM in each case.

For `c1ccc(CCn2cncn2)cc1`, the TGI in [1], in test [9], in test [3], in test [4], in test [10] and in test [5] was over 100 µM throughout. Also, the TGI in [7] and in test [8] was over 100 µM in each case.

`O=C(NN=C1CCCCC1)NN=C1CCCCC1`: the TGI in test [1], in [9], in [2], in test [4], in test [10] and in test [5] was over 100 µM throughout. Also, the TGI in test [6], in [7] and in [8] was over 100 µM throughout.

These data come from PubChem BioAssay (NCI).
